Here are results for one compound from ChEMBL document CHEMBL4823249, “Discovery of a Pyrimidinedione Derivative as a Potent and Orally Bioavailable Axl Inhibitor” (J Med Chem, 2021).

Data set [1] deals with Tyrosine-protein kinase JAK3 (Homo sapiens, UniProt P52333). As to the kind of experiment: Inhibition of recombinant human JAK3 (781 to end residues) using GGEEEEYFELVKKKK as substrate measured after 40 mins in presence of [gamm33P]ATP by scintillation counting method.
The target in data set [2] is Platelet-derived growth factor receptor alpha (Homo sapiens, UniProt P16234). In words: Inhibition of human PDGFRalpha (550 to end residues) using poly(Glu, Tyr) 4:1 as substrate measured after 40 mins in presence of [gamma33P]ATP by scintillation counting based radiometry assay.
Data set [3] deals with T1, Tyrosine-protein kinase receptor UFO (Mus musculus) (UniProt Q00993).
T1 sequence (whole entry): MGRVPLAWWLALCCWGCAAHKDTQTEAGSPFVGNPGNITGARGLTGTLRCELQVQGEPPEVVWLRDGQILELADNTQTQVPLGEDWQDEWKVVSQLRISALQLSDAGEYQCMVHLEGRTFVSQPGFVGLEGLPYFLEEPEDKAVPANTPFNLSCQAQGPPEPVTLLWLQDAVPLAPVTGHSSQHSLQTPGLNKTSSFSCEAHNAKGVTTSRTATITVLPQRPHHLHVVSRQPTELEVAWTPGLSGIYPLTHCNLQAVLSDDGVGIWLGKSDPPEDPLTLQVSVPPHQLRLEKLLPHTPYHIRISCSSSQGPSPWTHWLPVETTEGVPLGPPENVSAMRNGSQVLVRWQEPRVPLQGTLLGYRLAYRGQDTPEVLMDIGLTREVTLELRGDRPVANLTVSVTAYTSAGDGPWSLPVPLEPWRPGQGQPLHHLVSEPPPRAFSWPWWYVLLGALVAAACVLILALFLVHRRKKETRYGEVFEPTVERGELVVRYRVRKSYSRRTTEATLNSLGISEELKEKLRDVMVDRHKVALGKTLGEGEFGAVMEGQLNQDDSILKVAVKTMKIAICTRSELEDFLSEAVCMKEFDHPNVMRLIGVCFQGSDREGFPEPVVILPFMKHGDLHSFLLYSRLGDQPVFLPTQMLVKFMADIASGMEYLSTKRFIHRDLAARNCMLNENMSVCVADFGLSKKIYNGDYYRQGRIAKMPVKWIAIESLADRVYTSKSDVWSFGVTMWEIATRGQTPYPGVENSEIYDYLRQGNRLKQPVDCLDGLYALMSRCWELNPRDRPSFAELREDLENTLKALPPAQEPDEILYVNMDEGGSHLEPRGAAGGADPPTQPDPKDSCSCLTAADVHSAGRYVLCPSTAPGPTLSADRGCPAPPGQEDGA
In words: Inhibition of AXL in mouse BaF3/TEL-AXL cells assessed as reduction in phosphorylation of AKT at 1 to 15 nM after 2 hrs by Western blotting analysis. Type of data set: cell-based. The settings on record: dose 1-15 nM. For orientation: Immunoblotting shows a protein as a band on a membrane.

For data set [4], the target named is Fibroblast growth factor receptor 1 (Homo sapiens, UniProt P11362). In words: Inhibition of recombinant human FGFR1 (456 to 765 residues) using KKKSPGEYVNIEF as substrate incubated for 40 mins in presence of [gamma-33ATP] by radiometric scintillation counting analysis.
Chain of Fibroblast growth factor receptor 1 (P11362 whole entry, the tested form may be a part): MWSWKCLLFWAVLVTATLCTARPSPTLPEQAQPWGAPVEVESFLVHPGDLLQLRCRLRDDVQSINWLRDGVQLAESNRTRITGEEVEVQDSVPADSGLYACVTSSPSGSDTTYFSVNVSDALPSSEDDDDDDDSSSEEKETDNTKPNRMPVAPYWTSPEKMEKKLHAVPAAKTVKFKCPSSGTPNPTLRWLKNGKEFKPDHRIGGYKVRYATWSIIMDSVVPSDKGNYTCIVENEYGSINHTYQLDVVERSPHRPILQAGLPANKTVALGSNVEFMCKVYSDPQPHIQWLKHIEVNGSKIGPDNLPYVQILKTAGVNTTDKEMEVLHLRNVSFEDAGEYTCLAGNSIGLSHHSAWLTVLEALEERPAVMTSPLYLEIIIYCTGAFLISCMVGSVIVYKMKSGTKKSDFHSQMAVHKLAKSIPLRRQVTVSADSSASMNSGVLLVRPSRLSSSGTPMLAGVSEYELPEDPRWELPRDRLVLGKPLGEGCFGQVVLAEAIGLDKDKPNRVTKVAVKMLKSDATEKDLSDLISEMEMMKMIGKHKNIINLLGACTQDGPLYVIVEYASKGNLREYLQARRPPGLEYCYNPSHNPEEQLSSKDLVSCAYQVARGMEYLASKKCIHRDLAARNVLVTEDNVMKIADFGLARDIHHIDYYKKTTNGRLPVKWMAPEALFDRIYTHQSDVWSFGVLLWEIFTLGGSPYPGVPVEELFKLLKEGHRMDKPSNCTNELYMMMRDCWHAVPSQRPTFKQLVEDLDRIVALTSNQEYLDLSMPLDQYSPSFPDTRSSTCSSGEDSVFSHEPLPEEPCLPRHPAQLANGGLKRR
In a further data set the test system is U-87 MG. As to the kind of experiment: Antitumor activity against human U-87MG cells xenografted in BALB/c nude mouse assessed as tumor growth inhibition at 100 mg/kg, po administered once daily for 14 days by caliper method. Type of data set: functional, U-87MG ATCC. The settings on record: 336 h, time 14 day, read-out: TGI.
The next data set has as its system HL-60. In words: Antiproliferative activity against human HL-60 cells incubated for 72 hrs by SRB or CCK8 assay. It counts as functional, cell-based. The settings on record: HL-60, 72 h. A general note: Tetrazolium assays rely on reduction of a dye to a coloured formazan, in cell work by metabolically active cells.
A short description of data set [5]: AUC(0 to t) in ICR mouse at 3 mg/kg, po measured upto 24 hrs by LC-MS analysis. Type of data set: ADME, organism-based. Set-up: route oral, dose 3 mg/kg, time <=24. The settings on record: in vivo.
Data set [6] can be described thus: Inhibition of recombinant human PKA using Kemptide as substrate measured after 40 mins in presence of [gamma33P]ATP by scintillation counting based radiometry assay.
The target in data set [7] is Tyrosine-protein kinase BTK (Homo sapiens, UniProt Q06187). In words: Inhibition of full length recombinant human BTK using KVEKIGEGTYGVVYK as substrate incubated for 40 mins in presence of [gamma-33P]-ATP by scintillation counting based radiometry assay.
Chain of Tyrosine-protein kinase BTK (Q06187 whole entry): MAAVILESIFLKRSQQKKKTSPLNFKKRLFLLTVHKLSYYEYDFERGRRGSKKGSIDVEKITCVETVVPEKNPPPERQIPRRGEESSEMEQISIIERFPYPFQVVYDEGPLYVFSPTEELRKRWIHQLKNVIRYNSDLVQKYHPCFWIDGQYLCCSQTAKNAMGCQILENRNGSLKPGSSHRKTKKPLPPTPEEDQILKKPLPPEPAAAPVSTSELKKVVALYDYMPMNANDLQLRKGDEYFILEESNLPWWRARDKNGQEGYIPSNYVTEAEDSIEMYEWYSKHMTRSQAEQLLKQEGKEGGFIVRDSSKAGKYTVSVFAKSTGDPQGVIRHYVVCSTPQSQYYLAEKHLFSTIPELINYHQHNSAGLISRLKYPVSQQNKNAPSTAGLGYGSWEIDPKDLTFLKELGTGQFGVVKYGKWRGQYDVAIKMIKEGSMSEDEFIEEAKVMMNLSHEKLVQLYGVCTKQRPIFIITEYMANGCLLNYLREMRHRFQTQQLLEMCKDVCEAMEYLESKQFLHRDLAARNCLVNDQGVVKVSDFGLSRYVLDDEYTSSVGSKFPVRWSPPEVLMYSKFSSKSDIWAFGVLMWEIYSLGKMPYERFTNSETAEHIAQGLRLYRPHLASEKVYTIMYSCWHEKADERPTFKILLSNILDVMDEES
The target of data set [8] is Proto-oncogene tyrosine-protein kinase Src (Homo sapiens, UniProt P12931). In words: Inhibition of recombinant human C-Src using KVEKIGEGTYGVVYK as substrate incubated 40 mins in presence of [gamma-33ATP] by scintillation counting based radiometry assay.
The next data set has as its target CDK4/Cyclin D3 (Homo sapiens, UniProt P11802). In words: Inhibition of recombinant full length human CDK4/CyclinD3 using Rb fragment as substrate incubated for 40 mins in presence of [gamma-33ATP] by scintillation counting based radiometry assay. It counts as protein-complex assay.
Another data set deals with CDK2/Cyclin A2 (Homo sapiens, UniProt P24941). In words: Inhibition of full length human recombinant CDK2/Cyclin A using histone H1 as substrate incubated for 40 mins in presence of [gamma-33ATP] by radiometric scintillation counting analysis. Type of data set: protein-complex assay.
The nature of data set [9]: Clearance in ICR mouse at 1 mg/kg, iv measured upto 24 hrs by LC-MS analysis. Type of data set: ADME, organism-based. The settings on record: in vivo.
Data set [10] concerns the target Mast/stem cell growth factor receptor Kit (Homo sapiens, UniProt P10721). In words: Inhibition of recombinant human C-Kit using poly(Glu, Tyr) 4:1 as substrate incubated for 40 mins in presence of [gamma-33ATP] by scintillation counting based radiometry assay.
A short description of data set [11]: AUC(0 to t) in ICR mouse at 1 mg/kg, iv measured upto 24 hrs by LC-MS analysis. It counts as ADME, organism-based. Set-up: route intravenous, dose 1 mg/kg, time <=24. The settings on record: in vivo.
In another data set the test system is RT-112. In words: Antiproliferative activity against human RT-112 cells incubated for 72 hrs by SRB or CCK8 assay. It counts as functional, cell-based. The settings on record: RT-112, 72 h.
Data set [12] addresses Mitogen-activated protein kinase kinase kinase 20 (Homo sapiens, UniProt Q9NYL2). As to the kind of experiment: Inhibition of recombinant full-length human ZAK using MBP as substrate incubated for 40 mins in presence of [gamma33P]ATP by scintillation counting based radiometry assay.
Data set [13] addresses Insulin-like growth factor 1 receptor (Homo sapiens, UniProt P08069). In words: Inhibition of human IGF1R (959 to end residues) using KKKSPGEYVNIEFG as substrate after 40 mins in presence of [gamma-33ATP] by scintillation counting based radiometry assay.
The target in data set [14] is Dual specificity protein kinase CLK1 (Homo sapiens, UniProt P49759). In words: Inhibition of human recombinant CLK1 (130 to end residues) using ERMRPRKRQGSVR as substrate incubated for 40 mins in presence of [gamma-33ATP] by radiometric scintillation counting analysis.
In data set [15] the target is Hepatocyte growth factor receptor (Homo sapiens, UniProt P08581). As to the kind of experiment: Inhibition of recombinant human MET (974 to end residues) using KKKGQEEEYVFIE as substrate incubated for 40 mins in presence of [gamma-33ATP by scintillation counting based radiometry assay.
Chain of Hepatocyte growth factor receptor (P08581 whole entry): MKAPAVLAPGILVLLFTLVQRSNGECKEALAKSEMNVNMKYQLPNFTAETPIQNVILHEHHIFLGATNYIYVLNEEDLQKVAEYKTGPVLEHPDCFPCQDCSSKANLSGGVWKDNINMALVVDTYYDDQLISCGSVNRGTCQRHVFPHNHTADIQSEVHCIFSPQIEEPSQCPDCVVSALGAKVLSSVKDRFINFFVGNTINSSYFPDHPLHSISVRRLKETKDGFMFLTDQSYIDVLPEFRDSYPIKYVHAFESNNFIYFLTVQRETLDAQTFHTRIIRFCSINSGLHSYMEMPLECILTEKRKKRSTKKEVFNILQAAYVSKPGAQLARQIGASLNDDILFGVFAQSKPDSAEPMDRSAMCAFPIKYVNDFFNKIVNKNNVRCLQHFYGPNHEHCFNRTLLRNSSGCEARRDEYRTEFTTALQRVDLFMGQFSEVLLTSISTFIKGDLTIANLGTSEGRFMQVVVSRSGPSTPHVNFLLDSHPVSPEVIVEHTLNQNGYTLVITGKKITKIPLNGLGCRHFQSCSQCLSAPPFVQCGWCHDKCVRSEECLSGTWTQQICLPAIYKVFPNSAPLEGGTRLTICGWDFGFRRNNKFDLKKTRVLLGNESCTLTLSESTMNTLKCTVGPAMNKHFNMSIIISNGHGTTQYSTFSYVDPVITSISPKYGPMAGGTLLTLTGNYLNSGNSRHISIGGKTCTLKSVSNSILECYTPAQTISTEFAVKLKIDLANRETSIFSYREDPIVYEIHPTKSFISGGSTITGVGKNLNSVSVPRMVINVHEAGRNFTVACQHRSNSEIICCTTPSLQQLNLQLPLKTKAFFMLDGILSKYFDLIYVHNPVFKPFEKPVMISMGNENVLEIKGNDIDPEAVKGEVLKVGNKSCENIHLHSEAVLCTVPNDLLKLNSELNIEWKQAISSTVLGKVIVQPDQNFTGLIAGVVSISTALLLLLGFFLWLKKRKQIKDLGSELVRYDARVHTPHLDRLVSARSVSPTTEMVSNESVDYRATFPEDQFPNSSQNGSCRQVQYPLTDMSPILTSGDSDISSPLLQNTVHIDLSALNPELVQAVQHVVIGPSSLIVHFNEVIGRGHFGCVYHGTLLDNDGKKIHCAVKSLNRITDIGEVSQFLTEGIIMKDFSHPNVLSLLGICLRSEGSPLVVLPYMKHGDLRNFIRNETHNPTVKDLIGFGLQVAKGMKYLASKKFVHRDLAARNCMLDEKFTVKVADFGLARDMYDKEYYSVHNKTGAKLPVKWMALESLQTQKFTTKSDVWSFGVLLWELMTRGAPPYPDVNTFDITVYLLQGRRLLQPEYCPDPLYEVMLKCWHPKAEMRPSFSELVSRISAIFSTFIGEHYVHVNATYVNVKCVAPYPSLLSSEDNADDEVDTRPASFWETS
For a further data set, the system named is EBC-1. As to the kind of experiment: Antiproliferative activity against human EBC-1 cells incubated for 72 hrs by SRB or CCK8 assay. The settings on record: EBC-1, 72 h. Type of data set: functional, cell-based.
The target in data set [16] is Dual specificity mitogen-activated protein kinase kinase 1 (Homo sapiens, UniProt Q02750). In words: Inhibition of recombinant human MEK1 using inactive MAPK2 as substrate incubated for 40 mins in presence of [gamma-33ATP] by scintillation counting based radiometry assay.
Chain of Dual specificity mitogen-activated protein kinase kinase 1 (Q02750 whole entry): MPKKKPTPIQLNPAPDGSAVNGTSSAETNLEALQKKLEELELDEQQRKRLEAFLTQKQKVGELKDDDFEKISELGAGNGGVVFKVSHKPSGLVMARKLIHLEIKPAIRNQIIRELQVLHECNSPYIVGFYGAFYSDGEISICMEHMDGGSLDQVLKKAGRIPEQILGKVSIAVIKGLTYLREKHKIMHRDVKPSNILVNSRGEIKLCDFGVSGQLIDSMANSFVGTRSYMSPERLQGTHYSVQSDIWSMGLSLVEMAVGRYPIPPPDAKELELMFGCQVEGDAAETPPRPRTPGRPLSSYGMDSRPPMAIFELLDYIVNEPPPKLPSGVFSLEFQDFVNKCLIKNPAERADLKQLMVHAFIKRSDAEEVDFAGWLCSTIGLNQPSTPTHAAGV

A word on the IC50: it is the concentration at which inhibition is half-maximal. Broadly, the AUC(0-t) is exposure summed from dosing to a finite time, without extrapolation to infinity. Higher therefore signals more exposure. The term clearance denotes a measure of how efficiently the substance is removed, as volume per time. A high value points to efficient removal.

Active and inactive are the calls of the source. The calls are words filed in the database; no cut-off is given here. Where only a bound is given, the exact number is not on record here.

Chain of CDK4/Cyclin D3 (P11802 whole entry, the tested form may be a part): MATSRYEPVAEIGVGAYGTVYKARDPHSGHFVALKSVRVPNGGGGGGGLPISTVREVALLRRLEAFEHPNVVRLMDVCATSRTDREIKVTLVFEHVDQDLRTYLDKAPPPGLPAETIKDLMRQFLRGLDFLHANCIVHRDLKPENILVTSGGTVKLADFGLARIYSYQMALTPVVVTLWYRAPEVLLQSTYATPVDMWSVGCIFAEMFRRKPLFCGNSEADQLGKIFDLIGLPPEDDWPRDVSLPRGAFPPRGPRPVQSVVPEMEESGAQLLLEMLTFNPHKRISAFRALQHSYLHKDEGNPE
Chain of CDK4/Cyclin D3 (P30281 whole entry, further chain, the tested form may be a part): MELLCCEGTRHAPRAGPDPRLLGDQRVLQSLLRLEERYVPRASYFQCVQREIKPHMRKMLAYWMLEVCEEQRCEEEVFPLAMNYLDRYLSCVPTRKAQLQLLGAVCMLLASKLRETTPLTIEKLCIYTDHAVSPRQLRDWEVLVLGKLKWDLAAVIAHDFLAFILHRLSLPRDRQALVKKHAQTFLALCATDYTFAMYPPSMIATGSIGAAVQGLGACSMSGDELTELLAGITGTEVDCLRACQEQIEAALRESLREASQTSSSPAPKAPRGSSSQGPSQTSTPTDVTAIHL
Chain of Mitogen-activated protein kinase kinase kinase 20 (Q9NYL2 whole entry): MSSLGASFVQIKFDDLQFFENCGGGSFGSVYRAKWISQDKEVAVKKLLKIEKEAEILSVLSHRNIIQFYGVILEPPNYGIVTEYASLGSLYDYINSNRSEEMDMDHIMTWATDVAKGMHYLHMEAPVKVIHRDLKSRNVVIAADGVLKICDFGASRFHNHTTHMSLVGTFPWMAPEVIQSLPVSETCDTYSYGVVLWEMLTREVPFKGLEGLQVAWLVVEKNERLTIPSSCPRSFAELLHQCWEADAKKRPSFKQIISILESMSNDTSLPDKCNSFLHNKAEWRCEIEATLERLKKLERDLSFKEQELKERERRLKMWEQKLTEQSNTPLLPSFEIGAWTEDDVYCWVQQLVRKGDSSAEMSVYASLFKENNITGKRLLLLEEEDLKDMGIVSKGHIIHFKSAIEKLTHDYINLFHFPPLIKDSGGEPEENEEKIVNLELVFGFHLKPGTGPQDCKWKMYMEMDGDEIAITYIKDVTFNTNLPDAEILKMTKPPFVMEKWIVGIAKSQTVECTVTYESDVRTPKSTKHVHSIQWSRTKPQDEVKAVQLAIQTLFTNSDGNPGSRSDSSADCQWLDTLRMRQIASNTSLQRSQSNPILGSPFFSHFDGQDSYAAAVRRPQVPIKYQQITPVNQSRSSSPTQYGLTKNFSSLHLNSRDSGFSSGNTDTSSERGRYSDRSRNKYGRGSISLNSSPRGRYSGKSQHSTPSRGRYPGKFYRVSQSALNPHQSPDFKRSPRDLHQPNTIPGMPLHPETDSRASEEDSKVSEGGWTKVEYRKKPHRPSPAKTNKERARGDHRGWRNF

Take `CC(C)n1cc(C(=O)Nc2ccc(Oc3ccnc(NC(=O)C4CC4)c3)c(F)c2)c(=O)n(-c2ccc(F)cc2)c1=O`: the IC50 in [1] was over 1 µM; in [2], over 1 µM; in [4], over 1 µM; with HL-60, over 10 µM; in data set [6], over 1 µM; in [7] it was over 1 µM. Also, the IC50 in data set [8] is over 1 µM; at CDK4/Cyclin D3, over 1 µM; on CDK2/Cyclin A2, over 1 µM; in data set [10], over 1 µM; in the data set with RT-112 it was over 10 µM; in data set [12], over 0.1 µM. Further, the IC50 in data set [13] was over 1 µM; in data set [14] it was over 1 µM; in [15], 0.0008 µM; in the data set on EBC-1, 0.064 µM; in [16] it was over 1 µM. Besides, in [3], the inhibition entry is “Active”. Moreover, the inhibition in vivo at 100 mg/kg in the data set with U-87 MG was determined as 99.1%. In addition, the AUC(0-t) at 24 h in data set [5] came out at 24000 ng·h/mL; in data set [11], 7010 ng·h/mL. In data set [9], the clearance was determined as 2.29 mL/min/kg.
